The values below come from patent US9938316B2, “Selective inhibitors of α2 isoform of Na,K-ATPase and use thereof for reduction of intra-ocular pressure and as cardiotonic agents” (priority 2013, dated 2018).

In assay [1] the test system is intra-ocular pressure (IOP) of rabbits. In words: IB-MECA-induced ocular hypertension in rabbits. The format is in vivo, New Zealand white rabbits. The note with it: 1 mM applied after IB-MECA. The method, then:
IB-MECA induces acute ocular hypertension by a different and well-defined mechanism. Namely, IB-MECA is a selective agonist of the A3-adenosine receptor, and rises aqueous humour inflow and IOP by activating Cl channels of the NPE cells (18, 19). […] FIG. 8A depicts the effects of DMe (0.1-1 mM) applied prior to the IB-MECA, and a similar result was obtained for DGlyN (not shown). FIG. 8B depicts effects of digoxigenin, DGlyN and DMe (1 mM) applied after the IB-MECA.
New Zealand white rabbits (3-3.5 kg) about 1 year old, of either sex, were housed individually in separate cages in animal room conditions on a reversed, 12-hour dark/light cycle. For the experiments the animals were transferred to rabbit restrainers in a quiet and calm atmosphere (FIG. 1). […] Animal care and treatment were subject to the approval of the institutional committee for animal experiments, Weizmann Institute IACUC permission (no 04270911-2).
IOP (mm Hg) of rabbits was measured using a calibrated Pneumatonometer (Model 30, Reichert technologies, FIG. 1). A local anesthetic Oxybuprocaine HCl (0.4%, 25 μl) was applied to each cornea about a minute before IOP measurements. Two baseline IOP readings were taken before topical administration of the CG (or PBS as control) and after half an hour (Zero time). […] At zero time one drop of 4AP (40 mg/ml, 30 μl) or IB-MECA (1 μM, 30 μl) was administered to both eyes of each rabbit IOP measurements were made at different times as indicated in each experiment. In the experiments for which the IOP was elevated for several hours, 4AP was added every […] or IB-MECA every 2 hours. […] In all cases the figures depict the average effect on IOP (i.e for four or six eyes) compared to control ±SEM. […] Significance of differences from the control was calculated by the unpaired Students t-test (p values), p values <0.05 were considered significant. Corneal thickness (μm) was measured using an ultrasonic pachymeter (Sonogage pachometer, Cleveland, USA), before and during the experiment with CG and 4AP treatments. The values represent averages of three independent measurements for each eye.

Assay [2] has the same test system. In words: 4-aminopyridine (4AP)-induced ocular hypertension in rabbits. The format is in vivo, New Zealand white rabbits. The following applies: for Time IOP is maintained at the low level: 1 mM; for Time IOP is maintained at the low level / Time IOP is held at the low level: single drop; for Order of relative effects on IOP: all at 0.1 mM, 1.5 hours after 4AP, average of three experiments.

Assay [3] concerns purified α2β1FXYD1 complexes of Na,K-ATPase. In words: Dissociation of cardiac glycosides from the α2β1 isoform complex. The following applies: α2β1 isoform complex, 37° C. The method, then:
Since the principal isoform in NPE cells is α2 and dissociation from the pump is expected to affect the duration of the effects on IOP, the dissociation rates of different cardiac glycosides from the purified α2β1 isoform were compared.
Purified α2β1FXYD1 complexes (0.3-0.5 mg/ml) were incubated for 30 minutes at 37° C. in a medium containing ATP, 1 mM; NaCl 100 mM; MgCl2, 4 mM Histidine.HCl 25 mM pH 7.4 without (Control) or with 1 μM of different cardiac glycosides. The enzyme solutions were then diluted 100-fold into a medium containing 100 mM NaCl, 5 mM KCl, 1 mM EDTA (Tris), 0.005 mg/ml C12E8, 0.01 mg/ml SOPS, and 0.001 mg/ml cholesterol and incubated at 37° C. for different lengths of time. Aliquots were removed at different times and Na,K-ATPase activity was measured in triplicate over 0.5 minutes (digoxigenin) or 2 minutes (other cardiac glycosides) in the standard activity medium containing 200 μM ATP. The activity of test samples was divided by the activity of the control samples and the time-course for reversal of inhibition was analyzed by fitting the data to the function vt=v∞e^−kt+c. Normalized curves for comparison of different experiments (e.g. as in FIG. 9) were obtained by subtracting the constant value c from each value of the activity and re-fitting the ratio vt/v∞=1−e^−kt.

Assay [4] has as its target Na,K-ATPase α1β1 isoform complex (Homo sapiens, UniProt P05023). In words: biochemical. The following applies: Ki ± S.E. α1, Table 2; α1β1. The method, then:
Methods for transformation, culture of P. pastoris clones, protein expression of Na,K-ATPase human isoforms (α1β1, α2β1, α3β1), membrane preparation, solubilization of membranes in DDM, and purification on BD-Talon beads have been described in detail (6-9, 11, 25). In initial experiments the three purified isoform complexes (0.3-0.5 mg/ml) were eluted from the BD-Talon beads in a solution containing Imidazole 170 mM, NaCl 100 mM; Tricine.HCl 20 mM pH 7.4; C12E8, 0.1 mg/ml; SOPS 0.07 mg/ml cholesterol 0.01 mg/ml, glycerol 25%. In later experiments the isoforms complexes were reconstituted with purified FXYD1 on the BD-Talon beads together as described in detail in (10, 11) prior to elution of α1β1FXYD1, α2β1FXYD1 and α3β1FXYD1 complexes. The proteins were stored at −80° C. Protein concentration was determined with BCA (B9643 Sigma).
Inhibition of Na,K-ATPase activity of the detergent-soluble α1β1, α2β1, and α3β1 complexes by CG's was determined as described (6) using either the αβ or αβFXYD1 complexes. […] The K0.5K was estimated by varying K concentration in a medium containing a fixed total K+choline chloride of 60 mM, and constant NaCl of 140 mM. Curves were fitted to the Hill function v=Vmax*[S]^n/([S]^n+K^n), where S is the K concentration, n is the Hill coefficient and K^n is K0.5K. For comparison of different curves the ratio v/Vmax for each curve was calculated and replotted. In experiments to assess inhibition of Na,K-ATPase activity by cardiac glycosides of the present invention, the percent inhibition VCG/V0 was calculated and Ki values were obtained by fitting the data to the function VCG/V0=Ki/([CG]+Ki)+ c. Inhibition was estimated in 3-8 separate experiments and average Ki values ±SEM were calculated. Significance of differences between Kiα1 and Kiα2 was calculated by the unpaired Student's t-test (p values). […] P values <0.05 were considered significant.

By Ki is commonly meant the equilibrium dissociation constant of an inhibitor or competing ligand from its target. With `CC1CN(CC(N)=O)CCC(OC2C(O)CC(OC3C(O)CC(OC4CCC5(C)C(CCC6C5CC(O)C5(C)C(C7=CC(=O)OC7)CCC65O)C4)OC3C)OC2C)O1` (stereo not shown) [DGlyN], in assay [1], the “Duration of the effect compared with digoxigenin” value is given as “significantly greater” and the “Effect on IB-MECA-induced ocular hypertension” value is “almost the same as seen with 4AP”. Moreover, in assay [2] (4AP every two hours), the “Time IOP is maintained at the low level” value was 3.5 h. The “Order of relative effects on IOP” value in assay [2] was “DGlyN≈DMe≈digoxigenin>digoxin>ouabain”. For the same molecule, the “Wash-out time/rate compared with other cardiac glycosides” value in assay [2] (equal concentrations, 4AP every two hours) is listed as “slightly faster than for DMe”. The “k ± SEM (rate of dissociation)” value in assay [3] was 0.009 ± 0.001, 3 min^−1. The molecule also gave an inhibition constant (Ki) in assay [4] of 0.152 ± 0.0055 µM.

Turning to `CC1CN(C)CCC(OC2C(O)CC(OC3C(O)CC(OC4CCC5(C)C(CCC6C5CC(O)C5(C)C(C7=CC(=O)OC7)CCC65O)C4)OC3C)OC2C)O1` (stereo not shown) [DMe], the “Duration of the effect compared with digoxigenin” value in assay [1] was “significantly greater”. In addition, the “Effect on IB-MECA-induced ocular hypertension” value in assay [1] is “almost the same as seen with 4AP”. Moreover, the “Time IOP is held at the low level” value was determined as 2.5 h in assay [2] (0.2 mM, 4AP every two hours); 4.5 h in assay [2] (0.5 mM, 4AP every two hours); 5.8 h in assay [2] (2 mM, 4AP every two hours). Further, the “Time IOP is maintained at the low level” value in assay [2] (4AP every two hours) is given as “about 5.5 hours”. Also, the “Order of relative effects on IOP” value in assay [2] is reported as “DGlyN≈DMe≈digoxigenin>digoxin>ouabain”. Further, the “k ± SEM (rate of dissociation)” value in assay [3] is recorded as 0.0067 ± 0.004, 3 min^−1. For the same molecule, the affinity in assay [4], expressed as Ki, was 0.101 ± 0.0044 µM.
